System: proinsulin epitope C20-A1-specific CD4+ T cells
Assay: FACS quantification of CD4+ T cells responding to proinsulin epitope C20-A1 stimulation in PBMCs of T1D patients treated with IMP or placebo
Assay type: in vivo, human
Settings: visits 3 to 6 (impact of administrations 3 to 6)
Method: 84 HLA DR4+ adult participants are randomly assigned (1:1:1) to one of the three treatment arms: placebo, investigational medicinal product (IMP) 450 μg and IMP 1350 μg (=the main study). All participants receive 6 administrations of IMP or placebo with a 2-week interval between each administration. At 24 weeks participants receive a boost injection. While treated participants receive a boost administration equivalent to the dose they have been randomized to, placebo participants receive a placebo boost. The participants were followed up to 48 weeks (FIG. 1).
Treatment consists of six administrations (separated by 14 days) of the IMP or the placebo by SC route. […]
Patient blood samples collected at six time points (visit V-1 or the baseline which was prior to immunization, and visits V2 to V6 which were two weeks after 2, 3, 4, 5 or 6 injections respectively) was used to quantify CD4+ T cells responding to proinsulin epitope C20-A1 stimulation. […]
Fluorescent activated cell sorting (FACS) analysis was performed to quantify CD4+ T cells that respond to proinsulin epitope stimulation. […] In a proinsulin epitope C20-A1-stimulated sample, the “net % of responding CD4+ T cells” was calculated as the % of CD4+ T cells with an effector or regulatory phenotype in the stimulated sample minus the % of CD4+ T cells with effector or regulatory phenotype in the corresponding unstimulated sample. […]

HCPYCSLQPLALEGSLQKRG [IMP]
net % of responding CD4+ T cells in IMP treated as compared to Placebo treated patients at individual time points: trend of greater net % of responding CD4+ T cells
